From patent US10172816B2, “Method of treating chronic obstructive pulmonary disease (CPD) with verproside” (YUNGJIN PHARMACEUTICAL CO., LTD, priority 2013, dated 2019)
Each block holds one compound with its values, some of them ahead of it.

Experiments:
[1] = molecular target: ADBR2 (beta-2 adrenergic receptor) GPCR (Homo sapiens, UniProt P07550); test: ADBR2 GPCR-targeting cell-based assay (spot formation); conditions: 20 micromole; U2OS cells stably expressing ADBR2 GPCR
Mucin 5A/C [2] = test: Acrolein-induced Mucin 5A/C expression in A549 cells (RT-PCR); type: cell-based, human; conditions: pre-treated 1 hour, then 30 nM acrolein, dose dependent
Experimental: The diluted A549 cell line (ATCC, CCL-185) with DMEM medium supplemented with 5% phenol red and FBS (Fetal Bovine Serum) was seeded in 6 well plates (4×10^5 cells/well) to adhere thereto for a night, and 20 and 40 microgram/ml of ATC2 extract were treated with A549 cell line for 1 hours. 30 nM acrolein was treated therewith to induce Mucin 5A/C expression. The medium was removed the cell, washed with PBS solution and homogenized with Trizol (Invitrogen, CA, USA) for the isolation of ribonucleic acids from the cells for 5 mins. the cells were collected, transferred to centrifugal separator, completely mixed with chloroform for 15 seconds, left alone for 3 mins and centrifuged for 15 mins at the speed of 14,000 rpm. The supernatant containing ribonucleic acid was transferred to new tube and mixed with isopropylalcohol for 10 mins. The solution was centrifuged to discard the supernatant and 75% ethanol was added to the precipitate. The precipitate was centrifuged for 5 mins at the speed of 10,000 rpm and the supernatant was discarded. The precipitated ribonucleic acid was dried at room temperature for 20 mins. […] After the quantification of ribonucleic acid, the complementary DNA was synthesized using by 1 microgram of RNA and RT-kit (Omniscript RT kit, Qiagen, USA) and the synthetic cDNA was used as a template. […]

[3] = system: inflammatory immunocytes and neutrophils in BALF; test: COPD mouse model (LPS+CS, i.t.): immunocytes, neutrophils and T lymphocytes in BALF; type: in vivo, BALB/c mice; conditions: 15 mg/kg, p.o.
Experimental: Specific pathogen-free male BALB/c mice (about 18-20 g), aged 8 weeks, which were routinely screened serologically for relevant respiratory pathogens, were purchased from ORIENT Co. (www.orient.co.kr, Seoul, Korea) and bred allowing to access freely to feed and water in breeding room controlling the temperature of 22±2° C., and humidity of 55±15% at the light-dark cycle for 12 hours and acclimated with the experimental environment for 1 week. […] 8 weeks aged BALB/c male mice was anaesthetized with 7% chloral hydrate and 100 μl of LPS+CS mixture {LPS (100 μg/ml)+standard cigarette extract (Cigarette smoking (CS), 4 mg/ml)=1:1} was inhaled to mice (i.t.) for three weeks once a week to prepare COPD animal model. Briefly, 100 μl of LPS+CS mixture was evenly inhaled to nose and mouth of fastened mice (i.t). […] After the end of experiment, the blood, BALF, and pneumonocyte of each mice were isolated and collected to test. After blood collection, 1 ml of FBS-free/DMEM medium contained in injector was injected to the trachea of autopsied mice, and the mice was fixed with string to circulate the blood three times and isolate the cell from BALF. […] The isolated PBMCs, BAL (Bronchoalveolar lavage), and pneumocyte were adjusted to 5×10^5 cells and performed to immunofluorescence staining at 4° C. PE-anti-CD3e (553064, BD Pharmingen, USA), FITC-anti-CD8 (553031, BD Pharmingen, USA), PE-anti-CD4 (553047, BD Pharmingen, USA), PE-anti-Gr-1 (553128, BD Pharmingen, USA), and FITC-anti-neutrophil (ab55453, Abcam, UK) were added thereto, respectively, and reacted for 30 mins in ice. After the reaction, the cells were washed with phosphate buffered physiological saline solution more than three times and the cell frequency (%) of CD3^+CD4^+& CD3^+CD8^+, and Gr-1^+Neutrophil^+ was determined using by Cell Quest program (643274, BD Biosciences, USA) of the flow cytometer (FACSCalibur, Becton, Dickinson, USA) and the absolute total number in each tissue was calculated by applying total cells.

[4] = system: KC/CXCL-1 (Chemokines Gro-α); test: COPD mouse model (LPS+CS): KC/CXCL-1 in BALF by ELISA; type: in vivo, BALB/c mice; conditions: 15 mg/kg, p.o.
Experimental: (§1) 8 weeks aged BALB/c male mice was anaesthetized with 7% chloral hydrate and 100 μl of LPS+CS mixture {LPS (100 μg/ml)+standard cigarette extract (Cigarette smoking (CS), 4 mg/ml)=1:1} was inhaled to mice (i.t.) for three weeks once a week to prepare COPD animal model. Briefly, 100 μl of LPS+CS mixture was evenly inhaled to nose and mouth of fastened mice (i.t). […] After the end of experiment, the blood, BALF, and pneumonocyte of each mice were isolated and collected to test. The level of IL-1β, IL-6, TNF-a, IL-17, MCP-1, and GRO-a (BioSource, USA) in BALF isolated from mice was determined by enzyme-linked immuno-sorbent assay. Respective antibodies against L-1β, IL-6, TNF-a, IL-17, MCP-1, and GRO-a were diluted with a coating buffer solution (291195, R&D System, USA), coated on a microwell and left alone for overnight at 4° C. Each well was washed three times with washing buffer solution and 100 μl of 10-fold diluted serum was added thereto. […] The solution was left alone for 30 mins in shadow and added with 50 μl of stop solution (DY994, R&D system, USA) to determine the absorbance using by ELISA leader at 450 nm (340PC384, Molecular Devices, USA).

MIP-2/CXCL-2 = test: COPD mouse model (LPS+CS): MIP-2/CXCL-2 in BALF by ELISA; type: in vivo, BALB/c mice; conditions: 15 mg/kg, p.o.
TNF-α = test: COPD mouse model (LPS+CS): TNF-α in BALF by ELISA; type: in vivo, BALB/c mice; conditions: 15 mg/kg, p.o.
Experimental: as §1

Mucin 5A/C [5] = test: Digitization of Mucin 5A/C expression in A549 cells by high content screening; type: cell-based, human; conditions: 1, 5 and 10 ng/ml, versus control medium (GM)
Experimental: Accordingly, the present inventors developed novel high throughput screening test by introducing high content screening system which can quantitatively determine the expression of target protein in animal cell level and in order to screening the inhibiting agent of Mucin 5AC expression, following test was performed by modifying the target activator method published on Cellomics BioApplication.
A549 cell line (ATCC, CCL-185), a epithelial cell line isolated from human lung cancer tissue was seeded on 96 well plates (5,000 cells/well) and 24 hrs after the seeding, 20 ng/ml of bFGF, 100 ng/ml of EGF, 20 micromole IGF, 5 ng/ml of TGF-beta1, 30 nanomole acrolein, 5 nanomole PMA, 1 microgram/ml, LPS and 20 ng/ml of IL-1 beta were treated therewith. The expression of Mucin 5A/C was digitized by target activator program in Cellomics apparatus.
Various concentrations of TGF-beta 1 (PeproTech, #100-21), i.e., 1, 5 and 10 ng/ml TGF-beta 1 were treated with A549 cell line (ATCC, CCL-185), and the expression of Mucin 5A/C was digitized by target activator program in Cellomics apparatus.
Various concentrations of ATC2 extract were treated with A549 cell line for 2 hours and then […] TNF-alpha (Sigma, H8916) was treated therewith for 24 hours. The expression of Mucin 5A/C was digitized by target activator program in Cellomics apparatus.

ADBR2 (beta-2 adrenergic receptor) GPCR, sequence (P07550 whole entry): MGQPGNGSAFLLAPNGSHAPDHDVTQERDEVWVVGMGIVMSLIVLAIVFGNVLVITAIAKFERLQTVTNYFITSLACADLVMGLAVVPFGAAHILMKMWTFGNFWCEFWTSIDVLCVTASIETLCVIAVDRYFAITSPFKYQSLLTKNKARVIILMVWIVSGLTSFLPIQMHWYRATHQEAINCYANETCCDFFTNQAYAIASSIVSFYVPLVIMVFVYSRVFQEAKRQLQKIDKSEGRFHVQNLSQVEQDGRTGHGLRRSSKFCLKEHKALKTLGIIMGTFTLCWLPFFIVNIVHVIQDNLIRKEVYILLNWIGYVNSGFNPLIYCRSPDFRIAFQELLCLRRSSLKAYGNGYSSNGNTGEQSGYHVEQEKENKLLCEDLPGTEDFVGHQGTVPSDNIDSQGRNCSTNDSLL

spot formation [1]: did not show spot formation
Compound: COc1ccc(C(=O)O[C@H]2[C@@H]3C=CO[C@@H](O[C@@H]4O[C@H](CO)[C@@H](O)[C@H](O)[C@H]4O)[C@@H]3[C@@]3(CO)O[C@@H]23)cc1OC [6-O-veratroyl catalpol, 6-O-(3,4-dimethoxybenzoly) catalpol]
expression of Mucin 5A/C (mRNA, RT-PCR) (Mucin 5A/C [2]): inhibited

Compound: O=C(Nc1c(Cl)cncc1Cl)c1ccc(OC(F)F)c(OCC2CC2)c1 [Roflumilast, reference compound]
number of total immunocyte in BALF compared with control group [3]: sharply reduced
reduction of number of neutrophils (Diff-Quik stained, cytospin) in BALF compared with control group [3]: > 99.0%
reduction of total absolute cell number of CD8+ T cell in BALF compared with control group [3]: more than 67.2%
reduction of total absolute cell number of Neutrophils+Gr-1+ cell in BALF compared with control group [3]: > 97.5%
reduction of chemokine KC/CXCL-1 in BALF compared with control group [4]: > 82.7%
reduction of chemokines MIP-2/CXCL-2 in BALF compared with control group (MIP-2/CXCL-2): > 81.9%
reduction of TNF-α in BALF compared with control group (TNF-α): > 65.0%

spot formation [1]: did not show spot formation
Compound: O=C(O[C@H]1[C@@H]2C=CO[C@@H](O[C@@H]3O[C@H](CO)[C@@H](O)[C@H](O)[C@H]3O)[C@@H]2[C@@]2(CO)O[C@@H]12)c1ccc(O)cc1 [catalposide, 6-O-(4-hydroxybenzolyl) catalpol]

spot formation [1]: did not show spot formation
Compound: COc1ccc(C(=O)OC2C3C=COC(OC4OC(CO)C(O)C(O)C4O)C3C3(CO)OC23)cc1O (centres unmarked) [isovanilloyl catalpol, 6-O-(3-hydroxy-4-methoxybenzoyl)catalpol]

Compound: COc1cc(C(=O)O[C@H]2[C@@H]3C=CO[C@@H](O[C@@H]4O[C@H](CO)[C@@H](O)[C@H](O)[C@H]4O)[C@@H]3[C@@]3(CO)O[C@@H]23)ccc1O [picroside II, 6-O-(4-hydroxy-3-methoxybenzoly) catalpol]
spot formation [1]: did not show spot formation

Compound: COc1ccc(C(=O)O)cc1OC [veratric acid]
spot formation [1]: did not show spot formation

Compound: TGF-beta1: TGF-beta 1 (PeproTech, #100-21)
expression of Mucin 5A/C (Mucin 5A/C [5]): more inhibited the expression of MUCSA/C than control medium
